Measurements: publication PMC6768028, “Synthesis, SAR and in vitro therapeutic potentials of thiazolidine-2,4-diones” (Chemistry Central Journal, 2018)
Converted amounts (≈) assume the structure as drawn.

Tests used:
Bacillus subtilis = assay: Antimicrobial activity, tube dilution method (MIC); format: cell-based; settings: 24 h, read-out: Minimum inhibitory concentration, B. subtilis, tube dilution, 37 ± 1 °C, 24 h
Description: (§1) The in vitro antimicrobial activity of synthesized compounds was done by tube dilution method against Gram-positive bacteria: Staphylococcus aureus, Bacillus subtilis, Gram-negative bacteria: Escherichia coli, Klebsiella pneumonia, Salmonella typhi and fungal: Candida albicans and Aspergillus niger strains using cefadroxil and fluconazole as standard. Dilutions of test and standard compounds were prepared in double strength nutrient broth for bacterial strains and Sabouraud dextrose broth for fungal strains.

Escherichia coli = assay: Antimicrobial activity, tube dilution method (MIC); format: cell-based; settings: 24 h, read-out: Minimum inhibitory concentration, E. coli, tube dilution, 37 ± 1 °C, 24 h
Description: as §1

Klebsiella pneumonia = assay: Antimicrobial activity, tube dilution method (MIC); format: cell-based; settings: Klebsiella pneumoniae, 24 h, read-out: Minimum inhibitory concentration, K. pneumonia, tube dilution, 37 ± 1 °C, 24 h
Description: as §1

Salmonella typhi = assay: Antimicrobial activity, tube dilution method (MIC); format: cell-based; settings: Salmonella enterica, TYPHI, 24 h, read-out: Minimum inhibitory concentration, S. typhi
Description: as §1

Staphylococcus aureus = assay: Antimicrobial activity, tube dilution method (MIC); format: cell-based; settings: 24 h, read-out: Minimum inhibitory concentration, S. aureus, tube dilution, 37 ± 1 °C, 24 h
Description: as §1

Aspergillus niger = assay: Antifungal activity, tube dilution method (MIC); format: cell-based; settings: 168 h, read-out: Minimum inhibitory concentration, A. niger, tube dilution, 25 ± 1 °C, 7 days
Description: as §1

Candida albicans = assay: Antifungal activity, tube dilution method (MIC); format: cell-based; settings: 48 h, read-out: Minimum inhibitory concentration, C. albicans, tube dilution, 37 ± 1 °C, 48 h
Description: as §1

[1] = tested on: α-amylase enzyme (diastase); assay: Antidiabetic activity: α-amylase inhibitory activity using diastase, colorimetric method; format: biochemical; settings: for IC50 (antidiabetic activity, α-amylase): calculated via graph of % inhibition
Description: All the synthesized compounds were evaluated against α-amylase inhibitory activity by using diastase based on colorimetric method. 0.25 g of soluble potato starch was dissolved in 50 ml of 20 mM phosphate buffer by heating for 15 min. 1 mg diastase (amylase enzyme) was mixed in 100 ml of 20 mM phosphate buffer (pH 6.9) to obtain the enzyme solution. Different concentrations of all the synthesized derivatives were prepared by dissolving them in DMSO. […] 1 ml of enzyme solution was mixed with 1 ml of each synthesized derivatives and incubated for 10 min at 25 °C. Then 1 ml of this mixture was mixed with 1 ml of soluble potato starch solution in a tube and incubated for 10 min at 25 °C. Then tubes were closed after adding 1 ml of color reagent and placed into water bath for 15 min at 85 °C. The reaction mixture was removed from water bath after 15 min. After cooling, the reaction mixture was diluted with 9 ml of distilled water and the absorbance was taken at 540 nm in UV spectrophotometer. Blank solution was prepared by replacing the enzyme solution with buffer solution and absorbance was taken. Measurement of control was performed in identical manner by replacing the synthesized derivatives in 1 ml of DMSO.
Percentage inhibition of α-amylase enzyme was calculated by using following formula:1 %Inhibition=ABlank-ASample/ABlank×100

[2] = Antioxidant activity: free radical scavenging method by DPPH assay; settings: for % inhibition (DPPH), 25 μg/ml / % inhibition (DPPH), 50 μg/ml / % inhibition (DPPH), 75 μg/ml / % inhibition (DPPH), 100 μg/ml: 30 min, 517 nm; for IC50 (antioxidant activity, DPPH): calculated via graph of % inhibition
Description: The antioxidant activity of the newly synthesized compounds were evaluated spectrophotometrically using free radical scavenging method by DPPH (2,2-diphenyl-1-picrylhydrazyl) assay. The DPPH is a stable free radical with maximal absorption at 517 nm and is reduced to a corresponding hydrazine when it reacting with hydrogen donors. […] DPPH solution (3 μg/ml) was prepared in methanol and DPPH (in 1:1) solution was used for blank reference. Four dilutions of different concentrations (25, 50, 75 and 100 μg/ml) of each synthesized compound and standard (ascorbic acid) were prepared in the methanol and 1 ml of each concentration was added to 1 ml of DPPH solution. The solution mixture was shaken vigorously and kept in dark place for 30 min at room temperature and absorbance was measured by UV at 517 nm. Percentage inhibition of Free radical DPPH was calculated as follows:1 %Inhibition=ABlank-ASample/ABlank×100 where, ABlank: absorbance of the blank reaction, ASample: absorbance of the test compound.

Compound | MIC (Bacillus subtilis) [mM] | MIC (Escherichia coli) [mM] | MIC (Klebsiella pneumonia) [mM] | MIC (Salmonella typhi) [mM] | MIC (Staphylococcus aureus) [mM] | MIC (Aspergillus niger) [mM] | MIC (Candida albicans) [mM] | % inhibition (α-amylase), 25 μg/ml [1] [%] | % inhibition (α-amylase), 50 μg/ml [1] [%] | % inhibition (α-amylase), 75 μg/ml [1] [%] | % inhibition (α-amylase), 100 μg/ml [1] [%] | IC50 (antidiabetic activity, α-amylase) [1] [µg/mL] | % inhibition (DPPH), 25 μg/ml [2] [%] | % inhibition (DPPH), 50 μg/ml [2] [%] | % inhibition (DPPH), 75 μg/ml [2] [%] | % inhibition (DPPH), 100 μg/ml [2] [%] | IC50 (antioxidant activity, DPPH) [2] [µg/mL] | melting point [°C]
COc1cccc(C=C2SC(=O)NC2=O)c1 [Compound 16, 5-(3-Methoxybenzylidene)thiazolidine-2,4-dione] | 5.31 (≈ 1250 µg/mL) | 5.31 (≈ 1250 µg/mL) | 10.6 (≈ 2490 µg/mL) | 5.31 (≈ 1250 µg/mL) | 5.31 (≈ 1250 µg/mL) | 5.31 (≈ 1250 µg/mL) | 5.31 (≈ 1250 µg/mL) | 27.52 | 43.73 | 57.27 | 85.23 | 40.92 (≈ 174 µM) | 30.65 | 43.62 | 79.11 | 87.97 | 39.77 (≈ 169 µM) | 217 to 220
O=Cc1ccc(C=C2SC(=O)NC2=O)cc1 [Compound 21, 4-((2,4-Dioxothiazolidin-5-ylidene)methyl)benzaldehyde] | 5.3 (≈ 1240 µg/mL) | 5.3 (≈ 1240 µg/mL) | 10.7 (≈ 2500 µg/mL) | 5.3 (≈ 1240 µg/mL) | 5.3 (≈ 1240 µg/mL) | 5.3 (≈ 1240 µg/mL) | 5.3 (≈ 1240 µg/mL) | 21.98 | 47.28 | 70.56 | 74.76 | 38.65 (≈ 166 µM) | 17.91 | 41.64 | 75.98 | 92.32 | 55.51 (≈ 238 µM) | 147 to 150
